Assay results as given in ChEMBL document CHEMBL1201862, “PubChem BioAssay data set” (2004).
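Each compound was tested at five concentrations against cells in 96-well plates for 48 hours. The concentration for 50% growth inhibition is given as GI50.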 Calls of active or inactive are those of the source. Cut-off read from the data, not from the text of the source: active = GI50 up to about 1.1 µM and inactive = higher.

Columns and labels:
Assay in all cases: NCI anticancer screen, dose series, 48 h
PC-3 = tested on: PC-3
HL-60 = tested on: HL-60
SF-295 = tested on: SF-295
TK-10 = tested on: TK-10
SK-MEL-28 = tested on: SK-MEL-28
HCT-15 = tested on: HCT-15
MOLT-4 = tested on: MOLT-4
Malme-3M = tested on: Malme-3M
786-0 = tested on: 786-0
ACHN = tested on: ACHN
KM12 = tested on: KM12
HCC 2998 = tested on: HCC 2998
SF-268 = tested on: SF-268
BT-549 = tested on: BT-549
Hs-578T = tested on: Hs-578T
HOP-92 = tested on: HOP-92
CAKI-1 = tested on: CAKI-1
U-251 = tested on: U-251
OVCAR-8 = tested on: OVCAR-8
NCI-H460 = tested on: NCI-H460
UO-31 = tested on: UO-31
NCI-H226 = tested on: NCI-H226
SNB-19 = tested on: SNB-19
NCI-H522 = tested on: NCI-H522
EKVX = tested on: EKVX
OVCAR-4 = tested on: OVCAR-4
SW-620 = tested on: SW-620
OVCAR-5 = tested on: OVCAR-5
K562 = tested on: K562
MDA-N = tested on: MDA-N
SN12C = tested on: SN12C
T47D = tested on: T47D
HT-29 = tested on: HT-29
MDA-MB-435 = tested on: MDA-MB-435
CCRF-CEM = tested on: CCRF-CEM
COLO 205 = tested on: COLO 205
A498 = tested on: A498
LOX IMVI = tested on: LOX IMVI
OVCAR-3 = tested on: OVCAR-3
UACC-62 = tested on: UACC-62
A549 = tested on: A549
DU-145 = tested on: DU-145
UACC-257 = tested on: UACC-257
RXF 393 = tested on: RXF 393
SK-OV-3 = tested on: SK-OV-3
HOP-62 = tested on: HOP-62
NCI-H23 = tested on: NCI-H23
SK-MEL-5 = tested on: SK-MEL-5
NCI/ADR-RES = tested on: NCI/ADR-RES
IGROV-1 = tested on: IGROV-1
MCF7 = tested on: MCF7
M14 = tested on: M14
HCT-116 = tested on: HCT-116
MDA-MB-231 = tested on: MDA-MB-231
RPMI-8226 = tested on: RPMI-8226
SNB-75 = tested on: SNB-75
SK-MEL-2 = tested on: SK-MEL-2
SF-539 = tested on: SF-539

In the case of `S=C(Nc1ccc2c(c1)Cc1ccccc1-2)Nc1ccc2c(c1)Cc1ccccc1-2`, the GI50 (PC-3) is reported as > 100 µM (inactive), the GI50 (HL-60) is reported as 7.08 µM (inactive) and the GI50 (SF-295) is reported as > 100 µM (inactive). The GI50 (TK-10) was > 100 µM (inactive), the GI50 (SK-MEL-28) was > 100 µM (inactive) and the GI50 (HCT-15) was greater than 100 µM. For the same compound, the GI50 (MOLT-4) was 15 µM (inactive), the GI50 (Malme-3M) was > 100 µM (inactive) and the GI50 (786-0) was > 100 µM (inactive). For the same compound, the GI50 (ACHN) was > 100 µM (inactive), the GI50 (KM12) was > 100 µM (inactive) and the GI50 (HCC 2998) was > 100 µM (inactive). For the same compound, the GI50 (SF-268) was > 100 µM (inactive), the GI50 (BT-549) was > 100 µM (inactive) and the GI50 (Hs-578T) was > 100 µM (inactive). The GI50 (HOP-92) was 80.7 µM (inactive), the GI50 (CAKI-1) was > 100 µM (inactive) and the GI50 (U-251) was > 100 µM (inactive). The GI50 (OVCAR-8) was > 100 µM (inactive), the GI50 (NCI-H460) was > 100 µM (inactive) and the GI50 (UO-31) was > 100 µM (inactive). For the same compound, the GI50 (NCI-H226) was > 100 µM (inactive), the GI50 (SNB-19) was > 100 µM (inactive) and the GI50 (NCI-H522) was > 100 µM (inactive). The GI50 (EKVX) was > 100 µM (inactive), the GI50 (OVCAR-4) was > 100 µM (inactive) and the GI50 (SW-620) was > 100 µM (inactive). The GI50 (OVCAR-5) was > 100 µM (inactive), the GI50 (K562) was 19.1 µM (inactive) and the GI50 (MDA-N) was > 100 µM (inactive). The GI50 (SN12C) was > 100 µM (inactive), the GI50 (T47D) was > 100 µM (inactive) and the GI50 (HT-29) was > 100 µM (inactive). For the same compound, the GI50 (MDA-MB-435) was > 100 µM (inactive), the GI50 (CCRF-CEM) was 11.4 µM (inactive) and the GI50 (COLO 205) was > 100 µM (inactive). For the same compound, the GI50 (A498) was > 100 µM (inactive), the GI50 (LOX IMVI) was > 100 µM (inactive) and the GI50 (OVCAR-3) was > 100 µM (inactive). The GI50 (UACC-62) was > 100 µM (inactive), the GI50 (A549) was > 100 µM (inactive) and the GI50 (DU-145) was > 100 µM (inactive). The GI50 (UACC-257) was > 100 µM (inactive), the GI50 (RXF 393) was > 100 µM (inactive) and the GI50 (SK-OV-3) was > 100 µM (inactive). For the same compound, the GI50 (HOP-62) was > 100 µM (inactive), the GI50 (NCI-H23) was > 100 µM (inactive) and the GI50 (SK-MEL-5) was > 100 µM (inactive). For the same compound, the GI50 (NCI/ADR-RES) was > 100 µM (inactive), the GI50 (IGROV-1) was > 100 µM (inactive) and the GI50 (MCF7) was > 100 µM (inactive). For the same compound, the GI50 (M14) was > 100 µM (inactive), the GI50 (HCT-116) was > 100 µM (inactive) and the GI50 (MDA-MB-231) was > 100 µM (inactive). For the same compound, the GI50 (RPMI-8226) was > 100 µM (inactive).

In the case of `O=C1C=CC2(O[C@H](c3ccccc3)[C@@H](c3ccccc3)O2)[C@H](Sc2ccccc2O)C1`, the GI50 (PC-3) is reported as 0.7 µM (active), the GI50 (HL-60) is reported as 0.264 µM (active) and the GI50 (SF-295) is reported as 6.43 µM (inactive). For the same compound, the GI50 (TK-10) was 0.29 µM (active), the GI50 (SK-MEL-28) was 1.36 µM (inactive) and the GI50 (HCT-15) was 0.221 µM. The GI50 (MOLT-4) was 0.0286 µM (active), the GI50 (Malme-3M) was 0.294 µM (active) and the GI50 (786-0) was 0.15 µM (active). For the same compound, the GI50 (ACHN) was 0.351 µM (active), the GI50 (KM12) was 1.98 µM (inactive) and the GI50 (HCC 2998) was 0.454 µM (active). For the same compound, the GI50 (SF-268) was 0.29 µM (active), the GI50 (BT-549) was 0.502 µM (active) and the GI50 (SNB-75) was 3.28 µM (inactive). The GI50 (Hs-578T) was 0.836 µM (active), the GI50 (HOP-92) was 0.52 µM (active) and the GI50 (CAKI-1) was 0.34 µM (active). For the same compound, the GI50 (U-251) was 0.498 µM (active), the GI50 (OVCAR-8) was 0.105 µM (active) and the GI50 (NCI-H460) was 2.13 µM (inactive). For the same compound, the GI50 (UO-31) was 0.665 µM (active), the GI50 (NCI-H226) was 2.72 µM (inactive) and the GI50 (SNB-19) was 1.72 µM (inactive). The GI50 (NCI-H522) was 0.0532 µM (active), the GI50 (EKVX) was 1.43 µM (inactive) and the GI50 (OVCAR-4) was 1.08 µM (active). For the same compound, the GI50 (SW-620) was 0.0824 µM (active), the GI50 (OVCAR-5) was 2.35 µM (inactive) and the GI50 (K562) was 0.405 µM (active). For the same compound, the GI50 (MDA-N) was 0.316 µM (active), the GI50 (SN12C) was 0.204 µM (active) and the GI50 (T47D) was 0.785 µM (active). The GI50 (HT-29) was 0.398 µM (active), the GI50 (SK-MEL-2) was 2.02 µM (inactive) and the GI50 (MDA-MB-435) was 0.309 µM (active). The GI50 (CCRF-CEM) was < 0.0156 µM (active), the GI50 (COLO 205) was 0.499 µM (active) and the GI50 (A498) was 2.24 µM (inactive). For the same compound, the GI50 (LOX IMVI) was 0.163 µM (active), the GI50 (OVCAR-3) was 0.418 µM (active) and the GI50 (UACC-62) was 0.841 µM (active). For the same compound, the GI50 (A549) was 2.73 µM (inactive), the GI50 (DU-145) was 1.22 µM (inactive) and the GI50 (UACC-257) was 0.658 µM (active). For the same compound, the GI50 (RXF 393) was 0.238 µM (active), the GI50 (SK-OV-3) was 3.27 µM (inactive) and the GI50 (HOP-62) was 1.85 µM (inactive). For the same compound, the GI50 (NCI-H23) was 0.708 µM (active), the GI50 (SK-MEL-5) was 0.993 µM (active) and the GI50 (NCI/ADR-RES) was 0.414 µM (active). The GI50 (SF-539) was 0.757 µM (active), the GI50 (IGROV-1) was 0.281 µM (active) and the GI50 (MCF7) was 0.27 µM (active). For the same compound, the GI50 (M14) was 0.233 µM (active), the GI50 (HCT-116) was 0.122 µM (active) and the GI50 (MDA-MB-231) was 0.839 µM (active). The GI50 (RPMI-8226) was 0.0424 µM (active).

`Cc1c(C(=O)Nc2ccccc2)nnn1-c1ccnc2cc(C(F)(F)F)ccc12` was tested, and the GI50 (PC-3) was 30.1 µM (inactive), the GI50 (HL-60) was 35 µM (inactive) and the GI50 (SF-295) was 46.7 µM (inactive). For the same compound, the GI50 (TK-10) was 85.5 µM (inactive), the GI50 (SK-MEL-28) was > 100 µM (inactive) and the GI50 (HCT-15) was 45.3 µM. The GI50 (MOLT-4) was 34 µM (inactive), the GI50 (Malme-3M) was 37 µM (inactive) and the GI50 (786-0) was 74 µM (inactive). For the same compound, the GI50 (ACHN) was 54.7 µM (inactive), the GI50 (KM12) was 50.8 µM (inactive) and the GI50 (HCC 2998) was 38.1 µM (inactive). The GI50 (SF-268) was 78.9 µM (inactive), the GI50 (BT-549) was > 100 µM (inactive) and the GI50 (SNB-75) was 34.4 µM (inactive). For the same compound, the GI50 (Hs-578T) was > 100 µM (inactive), the GI50 (HOP-92) was 24.9 µM (inactive) and the GI50 (CAKI-1) was 37.5 µM (inactive). For the same compound, the GI50 (U-251) was 68.4 µM (inactive), the GI50 (OVCAR-8) was 76.9 µM (inactive) and the GI50 (NCI-H460) was 41.6 µM (inactive). The GI50 (UO-31) was 30.4 µM (inactive), the GI50 (NCI-H226) was 57.4 µM (inactive) and the GI50 (SNB-19) was 33.5 µM (inactive). For the same compound, the GI50 (NCI-H522) was 64.7 µM (inactive), the GI50 (EKVX) was 34.7 µM (inactive) and the GI50 (OVCAR-4) was 34.5 µM (inactive). The GI50 (SW-620) was > 100 µM (inactive), the GI50 (OVCAR-5) was > 100 µM (inactive) and the GI50 (K562) was 37.2 µM (inactive). The GI50 (MDA-N) was 33.3 µM (inactive), the GI50 (SN12C) was 53.2 µM (inactive) and the GI50 (T47D) was 32.4 µM (inactive). For the same compound, the GI50 (HT-29) was 80.2 µM (inactive), the GI50 (SK-MEL-2) was > 100 µM (inactive) and the GI50 (MDA-MB-435) was 40.8 µM (inactive). The GI50 (CCRF-CEM) was 39.4 µM (inactive), the GI50 (COLO 205) was 55 µM (inactive) and the GI50 (A498) was 82.8 µM (inactive). The GI50 (LOX IMVI) was 28.6 µM (inactive), the GI50 (OVCAR-3) was 67.1 µM (inactive) and the GI50 (UACC-62) was 71.9 µM (inactive). The GI50 (A549) was 89.5 µM (inactive), the GI50 (DU-145) was 49.3 µM (inactive) and the GI50 (UACC-257) was 22.1 µM (inactive). The GI50 (RXF 393) was 35.3 µM (inactive), the GI50 (SK-OV-3) was > 100 µM (inactive) and the GI50 (NCI-H23) was 50.6 µM (inactive). The GI50 (SK-MEL-5) was 20.5 µM (inactive), the GI50 (NCI/ADR-RES) was 42.6 µM (inactive) and the GI50 (SF-539) was > 100 µM (inactive). The GI50 (IGROV-1) was > 100 µM (inactive), the GI50 (MCF7) was 56.5 µM (inactive) and the GI50 (M14) was 41.9 µM (inactive). For the same compound, the GI50 (HCT-116) was 45.5 µM (inactive) and the GI50 (MDA-MB-231) was 19.1 µM (inactive).
